Like-named read-outs stand apart in the source and are kept apart here.
Assays:
Capan-1 (K-Ras G12V) = assay: CellTiter-Glo cell viability assay, 5-day treatment; format: cell-based; settings: Homo sapiens, CAPAN-1, 120 h, 5-day treatment; read-out: Capan-1 Cell Viability assay data (K-Ras G12V, IC50)
Summary of the method: (§1)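 Five-day compound treatment of plated cells; luminescent read after ~30 min at RT. Percent-of-DMSO data fit to a four-parameter logistic model.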

NCI-H358 (K-Ras G12C) = assay: as above; format: cell-based; settings: Homo sapiens, NCI-H358, 120 h, 5-day treatment; read-out: H358 Cell Viability assay data (K-Ras G12C, IC50)
Summary of the method: as §1

NRAS Q61K = NRAS Q61K (Homo sapiens, UniProt P01111+P62937, Q61K); assay: Disruption of BRAF RBD interaction with Ras (FRET / MOA assay, with Cyclophilin A); format: biochemical; settings: NRAS Q61K; read-out: NRAS Q61K FRET data IC50
Sequence of NRAS Q61K (P01111 whole entry Q61K): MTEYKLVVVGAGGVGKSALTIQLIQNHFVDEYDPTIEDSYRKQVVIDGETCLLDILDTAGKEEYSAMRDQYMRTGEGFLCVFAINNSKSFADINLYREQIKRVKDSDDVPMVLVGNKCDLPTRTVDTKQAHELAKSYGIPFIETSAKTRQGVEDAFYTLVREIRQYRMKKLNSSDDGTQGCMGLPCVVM
Sequence of NRAS Q61K (P62937 whole entry): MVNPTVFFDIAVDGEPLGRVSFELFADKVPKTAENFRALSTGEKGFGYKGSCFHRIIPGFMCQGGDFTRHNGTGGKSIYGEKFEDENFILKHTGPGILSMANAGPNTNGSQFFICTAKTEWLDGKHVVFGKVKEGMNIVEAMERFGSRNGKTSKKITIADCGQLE
Summary of the method: (§2)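 IC50 reflects compound-driven Ras:Cyclophilin A ternary complex displacing BRAF RBD, read as lowered TR-FRET ratio relative to DMSO after Eu anti-His (10 nM) and APC anti-GST (50 nM) detection for 1.5 h. Prior incubation 3 h, 25° C, with 12.5 nM GMPPNP-loaded Ras, 50 nM BRAF RBD, 25 μM Cyclophilin A; top compound 30 μM.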

NRAS Q61R = NRAS Q61R (Homo sapiens, UniProt P01111+P62937, Q61R); assay: as above; format: biochemical; settings: NRAS Q61R; read-out: NRAS Q61R FRET data IC50
Sequence of NRAS Q61R (P01111 whole entry Q61R): as the sequence (P01111 whole entry Q61K) above, with K61R counted along it
Sequence of NRAS Q61R (P62937 whole entry): as the sequence (P62937 whole entry) above
Summary of the method: as §2

NRAS WT = NRAS WT (Homo sapiens, UniProt P01111+P62937); assay: as above; format: biochemical; settings: NRAS WT; read-out: NRAS WT FRET data IC50
Sequence of NRAS WT (P01111 whole entry): as the sequence (P01111 whole entry Q61K) above, with K61Q counted along it
Sequence of NRAS WT (P62937 whole entry): as the sequence (P62937 whole entry) above
Summary of the method: as §2

KRAS Q61H = KRAS Q61H (Homo sapiens, UniProt P01116+P62937, Q61H); assay: as above; format: biochemical; settings: KRAS Q61H; read-out: KRAS Q61H FRET data IC50
Sequence of KRAS Q61H (P01116 1-169 isoform P01116-2 Q61H limits assumed): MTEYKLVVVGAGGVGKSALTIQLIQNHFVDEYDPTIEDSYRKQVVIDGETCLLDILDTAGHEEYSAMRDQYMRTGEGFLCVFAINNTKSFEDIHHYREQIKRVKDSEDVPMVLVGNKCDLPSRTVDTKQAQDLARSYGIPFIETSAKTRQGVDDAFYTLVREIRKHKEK
Sequence of KRAS Q61H (P62937 whole entry): as the sequence (P62937 whole entry) above
Summary of the method: as §2

KRAS G12C = KRAS G12C (Homo sapiens, UniProt P01116+P62937, G12C); assay: as above; format: biochemical
Sequence of KRAS G12C (P01116 1-169 isoform P01116-2 G12C): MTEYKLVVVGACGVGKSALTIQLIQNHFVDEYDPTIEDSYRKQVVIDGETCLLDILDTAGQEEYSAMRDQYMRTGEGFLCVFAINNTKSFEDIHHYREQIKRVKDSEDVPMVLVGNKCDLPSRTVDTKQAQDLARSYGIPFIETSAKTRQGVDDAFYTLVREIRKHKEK
Sequence of KRAS G12C (P62937 whole entry): as the sequence (P62937 whole entry) above
Summary of the method: (§3)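 First, compounds at a ten-point threefold dilution series (highest final concentration 30 μM) were incubated with nucleotide-loaded K-Ras, Cyclophilin A and BRAF RBD for 3 h at 25 °C. Next, detection antibodies were added for 1.5 h. Finally, IC50 was calculated from TR-FRET ratio decreases against DMSO controls.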

KRAS WT = KRAS WT (Homo sapiens, UniProt P01116+P62937); assay: as above; format: biochemical
Sequence of KRAS WT (P01116 1-169 isoform P01116-2 limits assumed): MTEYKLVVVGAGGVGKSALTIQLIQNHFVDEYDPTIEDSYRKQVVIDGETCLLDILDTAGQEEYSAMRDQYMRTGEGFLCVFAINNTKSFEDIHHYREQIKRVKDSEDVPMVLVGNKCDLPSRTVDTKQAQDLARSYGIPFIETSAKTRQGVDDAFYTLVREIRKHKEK
Sequence of KRAS WT (P62937 whole entry): as the sequence (P62937 whole entry) above
Summary of the method: as §3

KRAS G12V = KRAS G12V (Homo sapiens, UniProt P01116+P62937, G12V); assay: as above; format: biochemical
Sequence of KRAS G12V (P01116 1-169 isoform P01116-2 G12V limits assumed): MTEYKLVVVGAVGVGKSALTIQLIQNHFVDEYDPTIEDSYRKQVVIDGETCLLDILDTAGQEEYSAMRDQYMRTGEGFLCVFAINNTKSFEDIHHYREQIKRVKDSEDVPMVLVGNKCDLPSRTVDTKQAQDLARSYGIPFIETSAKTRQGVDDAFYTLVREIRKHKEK
Sequence of KRAS G12V (P62937 whole entry): as the sequence (P62937 whole entry) above
Summary of the method: as §3

KRAS G13D = KRAS G13D (Homo sapiens, UniProt P01116+P62937, G13D); assay: as above; format: biochemical
Sequence of KRAS G13D (P01116 1-169 isoform P01116-2 G13D limits assumed): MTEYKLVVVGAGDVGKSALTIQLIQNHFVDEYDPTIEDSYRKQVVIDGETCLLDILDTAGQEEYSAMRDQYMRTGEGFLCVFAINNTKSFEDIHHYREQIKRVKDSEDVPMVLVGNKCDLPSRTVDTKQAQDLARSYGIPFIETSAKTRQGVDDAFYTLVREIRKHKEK
Sequence of KRAS G13D (P62937 whole entry): as the sequence (P62937 whole entry) above
Summary of the method: as §3

KRAS G12S = KRAS G12S (Homo sapiens, UniProt P01116+P62937, G12S); assay: as above; format: biochemical
Sequence of KRAS G12S (P01116 1-169 isoform P01116-2 G12S limits assumed): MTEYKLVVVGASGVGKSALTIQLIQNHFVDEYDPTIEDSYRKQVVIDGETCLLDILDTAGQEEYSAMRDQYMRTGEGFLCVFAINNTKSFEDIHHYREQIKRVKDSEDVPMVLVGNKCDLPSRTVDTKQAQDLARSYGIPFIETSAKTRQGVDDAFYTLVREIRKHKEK
Sequence of KRAS G12S (P62937 whole entry): as the sequence (P62937 whole entry) above
Summary of the method: as §3

NRAS G12C = NRAS G12C (Homo sapiens, UniProt P01111+P62937, G12C); assay: as above; format: biochemical
Sequence of NRAS G12C (P01111 whole entry G12C): as the sequence (P01111 whole entry Q61K) above, with G12C, K61Q counted along it
Sequence of NRAS G12C (P62937 whole entry): as the sequence (P62937 whole entry) above

KRAS G13C = KRAS G13C (Homo sapiens, UniProt P01116+P62937, G13C); assay: as above; format: biochemical
Sequence of KRAS G13C (P01116 1-169 isoform P01116-2 G13C): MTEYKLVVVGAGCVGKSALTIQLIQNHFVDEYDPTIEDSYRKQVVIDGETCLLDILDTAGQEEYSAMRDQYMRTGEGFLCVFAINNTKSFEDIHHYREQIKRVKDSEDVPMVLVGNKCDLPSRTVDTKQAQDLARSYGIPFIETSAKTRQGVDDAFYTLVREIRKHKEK
Sequence of KRAS G13C (P62937 whole entry): as the sequence (P62937 whole entry) above
Summary of the method: as §3

KRAS G12D = KRAS G12D (Homo sapiens, UniProt P01116+P62937, G12D); assay: as above; format: biochemical
Sequence of KRAS G12D (P01116 1-169 isoform P01116-2 G12D limits assumed): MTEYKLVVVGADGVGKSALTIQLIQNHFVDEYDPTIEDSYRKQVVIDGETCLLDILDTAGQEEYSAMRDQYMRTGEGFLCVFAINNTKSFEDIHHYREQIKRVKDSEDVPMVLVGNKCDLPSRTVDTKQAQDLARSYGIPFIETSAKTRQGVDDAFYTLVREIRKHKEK
Sequence of KRAS G12D (P62937 whole entry): as the sequence (P62937 whole entry) above
Summary of the method: as §3

[1] = read-out: KRAS G12C FRET data, IC50
[2] = KRAS WT, read-out: KRAS WT FRET data IC50
[3] = KRAS G12V, read-out: KRAS G12V FRET data IC50
[4] = KRAS G13D, read-out: KRAS G13D FRET data IC50
[5] = read-out: KRAS G12S FRET data, IC50
[6] = NRAS G12C, read-out: NRAS G12C FRET data IC50
[7] = read-out: KRAS G13C FRET data, IC50
[8] = read-out: KRAS G12D FRET data, IC50

SMILES	IC50 (Capan-1 (K-Ras G12V))	IC50 (NCI-H358 (K-Ras G12C))	IC50 (NRAS Q61K)	IC50 (NRAS Q61R)	IC50 (NRAS WT)	IC50 (KRAS Q61H)	IC50 (KRAS G12C; [1])	IC50 (KRAS WT; [2])	IC50 (KRAS G12V; [3])	IC50 (KRAS G13D; [4])	IC50 (KRAS G12S; [5])	IC50 (NRAS G12C; [6])	IC50 (KRAS G13C; [7])	IC50 (KRAS G12D; [8])	further results
CCn1c(-c2cccnc2[C@H](C)OC)c2c3cc(ccc31)-c1csc(n1)C[C@H](NC(=O)[C@H](C(C)C)N(C)C(=O)N1CC3(CCN(C)CC3)C1)C(=O)N1CCC[C@H](N1)C(=O)OCC(C)(C)C2 [Example A513]	10 to 100 nM	10 to 100 nM	100 to 1000 nM	100 to 1000 nM	100 to 1000 nM	100 to 1000 nM	100 to 1000 nM	100 to 1000 nM	100 to 1000 nM	100 to 1000 nM	100 to 1000 nM	100 to 1000 nM	100 to 1000 nM	1000 to 10000 nM	–
CCn1c(-c2cccnc2[C@H](C)OC)c2c3cc(ccc31)-c1csc(n1)C[C@H](NC(=O)[C@H](C(C)C)N(C)C(=O)N1CC(N(C)C)C1)C(=O)N1CCC[C@H](N1)C(=O)OCC(C)(C)C2 (racemic) [Example A170]	10 to 100 nM	10 to 100 nM	10 to 100 nM	100 to 1000 nM	100 to 1000 nM	100 to 1000 nM	100 to 1000 nM	100 to 1000 nM	100 to 1000 nM	100 to 1000 nM	100 to 1000 nM	100 to 1000 nM	100 to 1000 nM	1000 to 10000 nM	–
CCn1c(-c2cccnc2[C@H](C)OC)c2c3cc(ccc31)-c1csc(n1)C[C@H](NC(=O)[C@H](C(C)C)N(C)C(=O)N1CC([C@H](C)NC)C1)C(=O)N1CCC[C@H](N1)C(=O)OCC(C)(C)C2 [Example A535]	100 to 1000 nM	100 to 1000 nM	100 to 1000 nM	100 to 1000 nM	100 to 1000 nM	100 to 1000 nM	100 to 1000 nM	100 to 1000 nM	100 to 1000 nM	100 to 1000 nM	100 to 1000 nM	100 to 1000 nM	100 to 1000 nM	1000 to 10000 nM	–
CCn1c(-c2cc(N3CCN(C)CC3)cnc2[C@H](C)OC)c2c3cc(ccc31)-c1csc(n1)C[C@H](NC(=O)[C@H](C1CCCC1)N(C)C(=O)N1CCC1)C(=O)N1CCC[C@H](N1)C(=O)OCC(C)(C)C2 (atropisomer, axis not shown) [Example A529]	< 10 nM	< 10 nM	10 to 100 nM	10 to 100 nM	10 to 100 nM	10 to 100 nM	10 to 100 nM	10 to 100 nM	10 to 100 nM	10 to 100 nM	10 to 100 nM	10 to 100 nM	10 to 100 nM	100 to 1000 nM	–
CCn1c(-c2cccnc2[C@H](C)OC)c2c3cc(ccc31)-c1csc(n1)C[C@H](NC(=O)[C@H](C(C)C)N(C)C(=O)N1C[C@@H]3CN(C)C[C@@H]31)C(=O)N1CCC[C@H](N1)C(=O)OCC(C)(C)C2 (atropisomer, axis not shown) [Example A446]	> 10000 nM	–	1000 to 10000 nM	> 10000 nM	1000 to 10000 nM	1000 to 10000 nM	1000 to 10000 nM	1000 to 10000 nM	> 10000 nM	1000 to 10000 nM	1000 to 10000 nM	1000 to 10000 nM	1000 to 10000 nM	> 10000 nM	–
CCn1c(-c2cccnc2[C@H](C)OC)c2c3cc(ccc31)-c1csc(n1)C[C@H](NC(=O)[C@H](C(C)C)N(C)C(=O)N1CC(N)(C#N)C1)C(=O)N1CCC[C@H](N1)C(=O)OCC(C)(C)C2 [Example A456]	1000 to 10000 nM	–	100 to 1000 nM	100 to 1000 nM	100 to 1000 nM	100 to 1000 nM	–	–	–	–	–	–	–	–	IC50 (KRAS G12C; KRAS G12C FRET data, IC50): 100 to 1000 nM; IC50 (KRAS WT; KRAS WT FRET data IC50, KRAS WT): 100 to 1000 nM; IC50 (KRAS G12V; KRAS G12V FRET data IC50, KRAS G12V): 100 to 1000 nM; IC50 (KRAS G13D; KRAS G13D FRET data IC50, KRAS G13D): 1000 to 10000 nM; IC50 (KRAS G12S; KRAS G12S FRET data, IC50): 100 to 1000 nM; IC50 (NRAS G12C; NRAS G12C FRET data IC50, NRAS G12C): 100 to 1000 nM; IC50 (KRAS G13C; KRAS G13C FRET data, IC50): 100 to 1000 nM; IC50 (KRAS G12D; KRAS G12D FRET data, IC50): 1000 to 10000 nM
CCn1c(-c2cccnc2[C@H](C)OC)c2c3cc(ccc31)-c1csc(n1)C[C@H](NC(=O)c1ccccn1)C(=O)N1CCC[C@H](N1)C(=O)OCC(C)(C)C2 [Example A366]	1000 to 10000 nM	–	100 to 1000 nM	1000 to 10000 nM	100 to 1000 nM	100 to 1000 nM	100 to 1000 nM	1000 to 10000 nM	100 to 1000 nM	1000 to 10000 nM	1000 to 10000 nM	100 to 1000 nM	100 to 1000 nM	1000 to 10000 nM	–
CCn1c(-c2cccnc2[C@H](C)OC)c2c3cc(ccc31)-c1csc(n1)C[C@H](NC(=O)[C@@H]1CCCO1)C(=O)N1CCC[C@H](N1)C(=O)OCC(C)(C)C2 [Example A331]	1000 to 10000 nM	–	100 to 1000 nM	1000 to 10000 nM	100 to 1000 nM	100 to 1000 nM	100 to 1000 nM	100 to 1000 nM	100 to 1000 nM	1000 to 10000 nM	100 to 1000 nM	100 to 1000 nM	100 to 1000 nM	1000 to 10000 nM	–
CCn1c(-c2cccnc2[C@H](C)OC)c2c3cc(ccc31)-c1csc(n1)C[C@H](NC(=O)[C@H](C(C)C)N(C)C(=O)N1CC[C@]13CCCNC3)C(=O)N1CCC[C@H](N1)C(=O)OCC(C)(C)C2 [Example A434]	1000 to 10000 nM	–	100 to 1000 nM	100 to 1000 nM	10 to 100 nM	10 to 100 nM	100 to 1000 nM	100 to 1000 nM	1000 to 10000 nM	100 to 1000 nM	100 to 1000 nM	100 to 1000 nM	100 to 1000 nM	100 to 1000 nM	–

— US20230233569A1 (Revolution Medicines, Inc., priority 2020, published 2023)
